This note sets out measurements from patent publication US20070254881A1, “Pyrazole Derivative” (DAIICHI PHARMACEUTICAL CO., LTD., priority 2004, published 2007).

Test [1] relates to collagen-induced platelet aggregation. In words: Platelet aggregation suppressing effect (collagen-induced aggregation in platelet rich plasma). Format: cell-based. To be noted: human PRP, 37° C., collagen as inducer, read-out: Inhibitory effect of collagen-induced platelet aggregation IC50. The method, then: Human blood was collected using 3.13% sodium citrate in a volume 1/10 of the blood volume, as an anticoagulant. The collected blood was centrifuged at 180 g for 10 minutes to separate platelet rich plasma (PRP) from the blood. After collecting the PRP fraction in the upper layer, the lower layer was further centrifuged at 1600 g for 10 minutes to fractionate platelet poor plasma (PPP) in the upper layer. One μl of a solution of a compound obtained in the Examples was added to 200 μl of PRP, and the mixture was allowed to stand at 37° C. for 2 minutes. Subsequently, 2 μl of collagen was added thereto, so as to induce platelet aggregation. The platelet aggregation rate was measured using PAM-12C(SSR Engineering, Inc.).

For another test, the target named is T1, Cyclooxygenase-1 (COX-1) (Ovis aries, UniProt P05979).
T1 construct: purchased Cayman Chemical Company 560101
T1 sequence (P05979 25-600): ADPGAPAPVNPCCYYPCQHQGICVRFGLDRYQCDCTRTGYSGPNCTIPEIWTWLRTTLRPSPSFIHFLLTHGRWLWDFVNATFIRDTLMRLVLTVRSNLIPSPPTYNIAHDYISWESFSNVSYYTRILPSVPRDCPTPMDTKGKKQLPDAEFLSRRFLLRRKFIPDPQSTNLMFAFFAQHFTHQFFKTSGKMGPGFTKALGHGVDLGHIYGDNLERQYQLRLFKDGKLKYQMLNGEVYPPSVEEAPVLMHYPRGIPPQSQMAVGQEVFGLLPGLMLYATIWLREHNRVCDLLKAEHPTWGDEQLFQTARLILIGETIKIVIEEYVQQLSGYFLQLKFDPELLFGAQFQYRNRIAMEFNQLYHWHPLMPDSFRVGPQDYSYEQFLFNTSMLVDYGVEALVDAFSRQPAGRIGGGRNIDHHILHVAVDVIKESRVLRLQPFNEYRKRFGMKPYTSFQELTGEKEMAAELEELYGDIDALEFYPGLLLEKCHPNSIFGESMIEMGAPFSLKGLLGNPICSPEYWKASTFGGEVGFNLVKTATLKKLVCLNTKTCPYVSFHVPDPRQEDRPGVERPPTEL
Nature of the test: COX-1 inhibition, COX Inhibitor Screening Assay Kit (PGF2α production, ELISA). Format: biochemical. To be noted: compound 50 μM. An excerpt: For the measurement of the inhibitory activity of the compounds obtained in the Examples against COX-1 and COX-2, a COX Inhibitor Screening Assay Kit manufactured by Cayman Chemical Company (Catalog Nos. 560101 and 560121) was used.
Before starting the measurement, a reaction buffer, heme, arachidonic acid, SnCl2, EIA buffer, a washing buffer, prostaglandin (PG)-screening EIA standard solution, PG-screening acetylcholinesterase (AchE), a tracer […], and PG-screening EIA antiserum were provided.
A reaction solution containing a compound of the Examples (50 μM) and COX-1, or a reaction solution containing a compound of the Examples (300 μM) and COX-2 was allowed to stand at 37° C. for 10 minutes, then 10 μl of arachidonic acid was added thereto, and the resultant mixture was allowed to stand at 37° C. for 2 minutes. After the reaction, 50 μl of 1 N hydrochloric acid was added to the reaction mixture to stop the reaction, and 100 μl of a SnCl2 solution was added thereto. The resultant mixture was allowed to stand at room temperature for 5 minutes.
50 μl of antiserum (rabbit anti-PGF2α antibody) was added to each well of a 96-well plate coated with mouse anti-rabbit IgG. Then, 50 μl of a solution prepared by diluting the reaction solution for PGF2α production to 2000-folds, and 50 μl of an AchE tracer were added sequentially to the wells, and the plate was kept at room temperature for 18 hours. Each well washed 5 times with the washing buffer to remove excessive AchE tracer, and then 200 μl of Ellman reagent was added to each well. The plate was kept in the dark room for 60 minutes, and then, absorbance at 405 nm was measured.
A standard curve was produced using a PG-screening EIA standard solution, and the amount of PGF2α production was determined from the absorbance obtained as described above. The COX-1 inhibition rate at 50 μM of the compound of the Examples, and the COX-2 inhibition rate at 300 μM of the compound of the Examples were calculated.

SMILES strings stand for the structures.

Consider `COc1ccc(-c2cc(C(=O)N3CCOCC3)nn2-c2ccc(C)nc2)nc1` [Example 1, 4-[5-(5-Methoxy-2-pyridyl)-1-(6-methyl-3-pyridyl)-1H-pyrazole-3-carbonyl]morpholine], for which the IC50 in test [1] is 0.21 µM. The “COX-1 inhibitory action at 50 μM (% inhibition)” value on Cyclooxygenase-1 (COX-1) is on record as −13.3 % inhibition.

Regarding `Cc1ccc(-n2nc(C(=O)N3CCC(F)(F)CC3)cc2-c2cnc(C)cn2)cn1` [Example 2, 1-[5-(5-Methyl-2-pyrazinyl)-1-(6-methyl-3-pyridyl)-1H-pyrazole-3-carbonyl]-4,4-difluoropiperidine], the IC50 in test [1] is 0.13 µM. For the same molecule, the “COX-1 inhibitory action at 50 μM (% inhibition)” value on Cyclooxygenase-1 (COX-1) is recorded as −1.2 % inhibition.

Turning to `COC1CCN(C(=O)c2cc(-c3cnc(C)cn3)n(-c3ccc(C)nc3)n2)CC1` [Example 3, 1-[5-(5-Methyl-2-pyrazinyl)-1-(6-methyl-3-pyridyl)-1H-pyrazole-3-carbonyl]-4-methoxypiperidine], the IC50 in test [1] is 0.22 µM. Besides, the “COX-1 inhibitory action at 50 μM (% inhibition)” value on Cyclooxygenase-1 (COX-1) is reported as −21.2 % inhibition.

For `COc1ccc(-c2cc(C(=O)N3CCC(OC)CC3)nn2-c2ccc(C)nc2)nc1` [Example 4, 1-[5-(5-Methoxy-2-pyridyl)-1-(6-methyl-3-pyridyl)-1H-pyrazole-3-carbonyl]-4-methoxypiperidine], the 50% inhibitory concentration (IC50) in test [1] was determined as 0.21 µM. Besides, the “COX-1 inhibitory action at 50 μM (% inhibition)” value on Cyclooxygenase-1 (COX-1) is −13.3 % inhibition.

`COc1ccc(-n2nc(C(=O)N3CCCCN3)cc2-c2ccccn2)nn1` [Example 5, 1-[1-(6-Methoxy-3-pyridazinyl)-5-(2-pyridyl)-1H-pyrazole-3-carbonyl]hexahydropyridazine]: the IC50 in test [1] worked out at 0.21 µM. Further, the “COX-1 inhibitory action at 50 μM (% inhibition)” value on Cyclooxygenase-1 (COX-1) is −35.9 % inhibition.

On to `COc1ccc(-n2nc(C(=O)N3CCN(C)C(=O)C3)cc2-n2cccc2)cn1` [Example 10, 1-[1-(6-Methoxy-3-pyridyl)-5-(1H-pyrrol-1-yl)-1H-pyrazole-3-carbonyl]-4-methyl-3-oxopiperazine], for which the concentration for half-maximal inhibition (IC50) in test [1] is 0.19 µM. Further, the “COX-1 inhibitory action at 50 μM (% inhibition)” value on Cyclooxygenase-1 (COX-1) came out at 54.1 % inhibition.

For the molecule `COc1ccc(-n2nc(C(=O)N3CCN(C)CC3)cc2-c2ccc[nH]2)nn1` [Example 12, 1-[1-(6-Methoxy-3-pyridazinyl)-5-(1H-pyrrol-2-yl)-1H-pyrazole-3-carbonyl]-4-methylpiperazine], the IC50 in test [1] was found to be 0.32 µM. The “COX-1 inhibitory action at 50 μM (% inhibition)” value on Cyclooxygenase-1 (COX-1) was 25.9 % inhibition.

As for `COc1ccc(-n2nc(C(=O)N3CCC(OC)CC3)cc2-c2ccc[nH]2)nn1` [Example 14, 1-[1-(6-Methoxy-3-pyridazinyl)-5-(1H-pyrrol-2-yl)-1H-pyrazole-3-carbonyl]-4-methoxypiperidine], the IC50 in test [1] is 0.12 µM. Also, on Cyclooxygenase-1 (COX-1), the “COX-1 inhibitory action at 50 μM (% inhibition)” value amounted to 39.3 % inhibition.

With `Cc1ccc(-n2nc(C(=O)N3CCOCC3)cc2-c2ccn(C)c2)cn1` [Example 16, 4-[1-(6-Methyl-3-pyridyl)-5-(1-methyl-1H-pyrrol-3-yl)-1H-pyrazole-3-carbonyl]morpholine], the 50% inhibitory concentration (IC50) in test [1] was 0.12 µM. Also, the “COX-1 inhibitory action at 50 μM (% inhibition)” value at Cyclooxygenase-1 (COX-1) is reported as −5.2 % inhibition.

With `Cc1ccc(-c2cc(C(=O)N3CCC(F)(F)CC3)nn2-c2ccc(C)nn2)nc1` [Example 18, 1-[1-(6-Methyl-3-pyridazinyl)-5-(5-methyl-2-pyridyl)-1H-pyrazole-3-carbonyl]-4,4-difluoropiperidine], in test [1], the IC50 was determined as 0.2 µM. Besides, on Cyclooxygenase-1 (COX-1), the “COX-1 inhibitory action at 50 μM (% inhibition)” value is −3.0 % inhibition.

Take `COc1ccc(-n2nc(C(=O)N3CCC(OC)CC3)cc2-c2ccccn2)cn1` [Example 20, 1-[1-(6-Methoxy-3-pyridyl)-5-(2-pyridyl)-1H-pyrazole-3-carbonyl]-4-methoxypiperidine]: the IC50 in test [1] was found to be 0.12 µM. At Cyclooxygenase-1 (COX-1), the “COX-1 inhibitory action at 50 μM (% inhibition)” value was −17.0 % inhibition.

With `COc1ccc(-n2nc(C(=O)N3CCCC3C)cc2-c2ccccn2)nn1` (centres unmarked) [Example 27, 1-[1-(6-Methoxy-3-pyridazinyl)-5-(2-pyridyl)-1H-pyrazole-3-carbonyl]-2-methylpyrrolidine], the 50% inhibitory concentration (IC50) in test [1] was 0.091 µM. Also, the “COX-1 inhibitory action at 50 μM (% inhibition)” value at Cyclooxygenase-1 (COX-1) was −10.2 % inhibition.

For the molecule `COc1ccc(-n2nc(C(=O)N3CCC[C@H]3CF)cc2-c2ccccn2)nn1` [Example 31, (2S)-1-[1-(6-Methoxy-3-pyridazinyl)-5-(2-pyridyl)-1H-pyrazole-3-carbonyl]-2-fluoromethylpyrrolidine], the IC50 in test [1] turned out to be 0.18 µM. On Cyclooxygenase-1 (COX-1), the “COX-1 inhibitory action at 50 μM (% inhibition)” value was −10.5 % inhibition.

For `Cc1ccc(-n2nc(C(=O)N3CCC(F)CC3)cc2-c2cnc(C)cn2)cn1` [Example 32, 1-[5-(5-Methyl-2-pyrazinyl)-1-(6-methyl-3-pyridyl)-1H-pyrazole-3-carbonyl]-4-fluoropiperidine], the IC50 in test [1] was found to be 0.21 µM. Further, the “COX-1 inhibitory action at 50 μM (% inhibition)” value on Cyclooxygenase-1 (COX-1) is on record as −8.4 % inhibition.

As for `COc1ccc(-n2nc(C(=O)N3CCC(OC)CC3)cc2-c2cscn2)cn1` [Example 128, 1-[1-(6-Methoxy-3-pyridyl)-5-(thiazol-4-yl)-1H-pyrazole-3-carbonyl]-4-methoxypiperidine], the IC50 in test [1] was 0.1 µM.

With `COc1ccc(-n2nc(C(=O)N3CCCCC3C(N)=O)cc2-c2cscn2)cn1` (centres unmarked) [Example 129, 1-[1-(6-Methoxy-3-pyridyl)-5-(thiazol-4-yl)-1H-pyrazole-3-carbonyl]-2-carbamoylpiperidine], in test [1], the concentration for half-maximal inhibition (IC50) was 0.26 µM.

`COc1ccc(-n2nc(C(=O)N3CCN(C)CC3)cc2-c2cscn2)nn1` [Example 131, 1-[1-(6-Methoxy-3-pyridazinyl)-5-(thiazol-4-yl)-1H-pyrazole-3-carbonyl]-4-methylpiperazine]: the IC50 in test [1] worked out at 0.32 µM.

Turning to `COc1ccc(-n2nc(C(=O)N3CCC(OC)CC3)cc2-c2cscn2)nn1` [Example 132, 1-[1-(6-Methoxy-3-pyridazinyl)-5-(thiazol-4-yl)-1H-pyrazole-3-carbonyl]-4-methoxypiperidine], the IC50 in test [1] is 0.19 µM.

For `COc1ccc(-n2nc(C(=O)N3CCC(F)(F)CC3)cc2-c2cscn2)nn1` [Example 133, 1-[1-(6-Methoxy-3-pyridazinyl)-5-(thiazol-4-yl)-1H-pyrazole-3-carbonyl]-4,4-difluoropiperidine], in test [1], the concentration for half-maximal inhibition (IC50) stood at 0.08 µM.

Regarding `COc1ccc(-n2nc(C(=O)N3CCCCN3)cc2-c2cnn(C)c2)cn1` [Example 134, 1-[1-(6-Methoxy-3-pyridyl)-5 (1-methyl-1H-pyrazol-4-yl)-1H-pyrazole-3-carbonyl]hexahydropyridazine], the half-inhibitory concentration (IC50) in test [1] is 0.04 µM.

Regarding `COc1ccc(-n2nc(C(=O)N3CCCOCC3)cc2-c2cnn(C)c2)cn1` [Example 136, 4-[1-(6-Methoxy-3-pyridyl)-5-(1-methyl-1H-pyrazol-4-yl)-1H-pyrazole-3-carbonyl]-1,4-oxazepane], in test [1], the IC50 came out at 0.36 µM.

With `COc1ccc(-n2nc(C(=O)N3CCCOCC3)cc2-c2cscn2)nn1` [Example 137, 4-[1-(6-Methoxy-3-pyridazinyl)-5-(thiazol-4-yl)-1H-pyrazole-3-carbonyl]-1,4-oxazepane], in test [1], the half-inhibitory concentration (IC50) is 0.08 µM.

In the case of `COc1ccc(-n2nc(C(=O)N3CCCCN3)cc2-c2cscn2)cn1` [Example 138, 1-[1-(6-Methoxy-3-pyridyl)-5-(thiazol-4-yl)-1H-pyrazole-3-carbonyl]hexahydropyridazine], in test [1], the 50% inhibitory concentration (IC50) was 0.041 µM.

As for `COc1ccc(-n2nc(C(=O)N3CCCOCC3)cc2-c2cscn2)cn1` [Example 139, 4-[1-(6-Methoxy-3-pyridyl)-5-(thiazol-4-yl)-1H-pyrazole-3-carbonyl]-1,4-oxazepane], in test [1], the half-inhibitory concentration (IC50) was 0.041 µM.
